Source: ChEMBL document CHEMBL4706648, “Antitubercular 2-Pyrazolylpyrimidinones: Structure-Activity Relationship and Mode-of-Action Studies” (J Med Chem, 2021)
≈ marks a conversion by molar mass, not a printed value. Calls of active or inactive are those of the source. The calls are words filed in the database; no cut-off is given here.

How the values were obtained:
[1] = Metabolic stability in human liver microsomes assessed as parent compound remaining after 30 mins; type: ADME, Microsome; details: 0.5 h
[2] = AUC (0 to infinity) in C57/BL6 mouse blood at 20 mg/kg, po measured upto 24 hrs by LC-MS/MS analysis; type: ADME, organism-based; set-up: route oral, dose 20 mg/kg, time <=24
[3] = Kinetic solubility of compound at 200 uM at pH 7.4 measured after 20 hrs by HPLC-DAD analysis; type: physicochemical; details: buffer, pH 7.4, 20 h
[4] = Drug metabolism in C57/BL6 mouse blood assessed as glucuronide metabolite formation by HPLC analysis; type: ADME, tissue-based
[5] = Protein binding in human plasma assessed as unbound fraction at 5 uM incubated for 1 hr at 37 degreeC and measured after 4 hrs by ultracentrifugation based LC-MS/MS analysis; type: ADME, cell-free; details: 5 h
[6] = Aqueous solubility of compound at pH 7.4; type: physicochemical; details: buffer
[7] = Metabolic stability in rat liver microsomes assessed as parent compound remaining after 30 mins; type: ADME, Microsome; details: 0.5 h
[8] = tested on: Mycobacterium tuberculosis; assay: Bactericidal activity against Mycobacterium tuberculosis H37Rv assessed as reduction in CFU grown under middlebrook 7H9/OADC-Glycerol-Tween80 medium at 1 to 2 times MIC incubated for 7 days; type: functional; details: time 7 day
[9] = Metabolic stability in mouse liver microsomes assessed as parent compound remaining after 30 mins; type: ADME, Microsome; details: 0.5 h
[10] = Intrinsic clearance in C57/BL6 mouse blood at 2 mg/kg, iv administered as bolus dose measured upto 24 hrs by LC-MS/MS analysis; type: ADME, organism-based; details: in vivo
[11] = Volume of distribution during elimination phase in C57/BL6 mouse blood at 2 mg/kg, iv administered as bolus dose measured upto 24 hrs by LC-MS/MS analysis; type: ADME, organism-based; details: C57/BL6, mouse, blood, read-out: Vd
[12] = tested on: Mycobacterium tuberculosis; assay: Antimycobacterial activity against mmpL3 gene silenced Mycobacterium tuberculosis H37Rv assessed as inhibition of bacterial growth grown under middlebrook 7H9 medium incubated for 7 days by alamar blue broth microdilution method; type: functional, organism-based; details: time 7.0 day
[13] = Apparent half life in C57/BL6 mouse blood at 2 mg/kg, iv administered as bolus dose measured upto 24 hrs by LC-MS/MS analysis; type: ADME, organism-based; details: C57/BL6, mouse, blood, read-out: t1/2(app) (converted)
[14] = tested on: CHO; assay: Cytotoxicity against CHO cells assessed as reduction in cell viability by MTT assay; type: cell-based; details: Cricetulus griseus
[15] = Cmax in C57/BL6 mouse blood at 2 mg/kg, iv administered as bolus dose measured upto 24 hrs by LC-MS/MS analysis; type: ADME, organism-based; set-up: route intravenous, dose 2 mg/kg, time <=24; details: C57/BL6, mouse, blood
[16] = tested on: Mycobacterium tuberculosis; type: functional; details: H37Rv, 168 h, time 7 day
[17] = AUC (0 to infinity) in C57/BL6 mouse blood at 2 mg/kg, iv administered as bolus dose measured upto 24 hrs by LC-MS/MS analysis; type: ADME, organism-based; set-up: route intravenous, dose 2 mg/kg, time <=24; details: C57/BL6, mouse, blood
[18] = Oral bioavailability in C57/BL6 mouse blood at 20 mg/kg measured upto 24 hrs by LC-MS/MS analysis; type: ADME, organism-based; details: C57/BL6, mouse, blood
[19] = Total blood clearance in C57/BL6 mouse blood at 2 mg/kg, iv administered as bolus dose measured upto 24 hrs by LC-MS/MS analysis; type: ADME, organism-based
[20] = tested on: Mycobacterium tuberculosis; assay: Antimycobacterial activity against wild-type Mycobacterium tuberculosis H37Rv assessed as inhibition of bacterial growth grown under middlebrook 7H9 medium incubated for 7 days by alamar blue broth microdilution method; type: functional; details: 168 h, time 7 day
[21] = Cmax in C57/BL6 mouse blood at 20 mg/kg, po measured upto 24 hrs by LC-MS/MS analysis; type: ADME, organism-based; set-up: route oral, dose 20 mg/kg, time <=24; details: C57/BL6, mouse, blood
[22] = Tmax in C57/BL6 mouse blood at 20 mg/kg, po measured upto 24 hrs by LC-MS/MS analysis; type: ADME, organism-based; details: C57/BL6, mouse, blood, read-out: Tmax
[23] = Apparent half life in C57/BL6 mouse blood at 20 mg/kg, po measured upto 24 hrs by LC-MS/MS analysis; type: ADME, organism-based; details: C57/BL6, mouse, blood, read-out: t1/2(app) (converted)
[24] = tested on: Mycobacterium tuberculosis; type: functional; details: H37Rv, time 6.0 hrs
[25] = tested on: Mycobacterium tuberculosis; assay: Upregulation of rv3269 in Mycobacterium tuberculosis H37Rv incubated for 6 hrs by microarray based assay; type: functional
[26] = tested on: Mycobacterium tuberculosis; assay: Upregulation of rv2385 in Mycobacterium tuberculosis H37Rv incubated for 6 hrs by microarray based assay; type: functional
[27] = tested on: Mycobacterium tuberculosis; assay: Upregulation of rv1343 in Mycobacterium tuberculosis H37Rv assessed as fold change incubated for 6 hrs by microarray based assay; type: functional
[28] = tested on: Mycobacterium tuberculosis; type: functional; details: H37Rv, 168 h, time 7 day; remark: listed apart in the source
[29] = tested on: Mycobacterium tuberculosis; assay: Upregulation of rv1347 in Mycobacterium tuberculosis H37Rv assessed as fold change incubated for 6 hrs by microarray based assay; type: functional
[30] = tested on: Mycobacterium tuberculosis; type: functional; details: H37Rv, time 6.0 hrs; remark: listed apart in the source
[31] = tested on: Mycobacterium tuberculosis; type: functional; details: H37Rv, time 6.0 hrs; remark: listed apart in the source
[32] = tested on: Mycobacterium tuberculosis; assay: Upregulation of rv1346 in Mycobacterium tuberculosis H37Rv assessed as fold change incubated for 6 hrs by microarray based assay; type: functional
[33] = tested on: Mycobacterium tuberculosis; assay: Upregulation of rv2384 in Mycobacterium tuberculosis H37Rv incubated for 6 hrs by microarray based assay; type: functional
[34] = tested on: Mycobacterium tuberculosis; type: functional, H37Rv; details: time 7 day
[35] = tested on: Mycobacterium tuberculosis; assay: Upregulation of rv1344 in Mycobacterium tuberculosis H37Rv assessed as fold change incubated for 6 hrs by microarray based assay; type: functional
[36] = tested on: Mycobacterium tuberculosis; type: functional; details: H37Rv, time 6.0 hrs; remark: listed apart in the source
[37] = tested on: Mycobacterium tuberculosis; assay: Upregulation of rv1349 in Mycobacterium tuberculosis H37Rv assessed as fold change incubated for 6 hrs by microarray based assay; type: functional
[38] = tested on: Mycobacterium tuberculosis; assay: Upregulation of rv3270 in Mycobacterium tuberculosis H37Rv incubated for 6 hrs by microarray based assay; type: functional
[39] = tested on: Mycobacterium tuberculosis; type: functional; details: H37Rv, time 6.0 hrs; remark: listed apart in the source
[40] = Metal chelating activity assessed as Fe2+-compound complex formation by measuring shift in absorbance at 10 uM at 285 nm measured after 1 hr in presence of ferrous sulphate by UV-Visible spectrophotometric analysis
[41] = tested on: Mycobacterium tuberculosis; assay: Upregulation of rv1345 in Mycobacterium tuberculosis H37Rv assessed as fold change incubated for 6 hrs by microarray based assay; type: functional
[42] = tested on: Mycobacterium tuberculosis; assay: Upregulation of rv1342 in Mycobacterium tuberculosis H37Rv assessed as fold change incubated for 6 hrs by microarray based assay; type: functional
[43] = tested on: Mycobacterium tuberculosis; type: functional; details: H37Rv, time 6.0 hrs; remark: listed apart in the source
[44] = tested on: Mycobacterium tuberculosis; assay: Upregulation of rv1348 in Mycobacterium tuberculosis H37Rv assessed as fold change incubated for 6 hrs by microarray based assay; type: functional
[45] = tested on: Mycobacterium tuberculosis; type: functional; details: H37Rv, time 6.0 hrs; remark: listed apart in the source
[46] = tested on: Mycobacterium tuberculosis; type: functional; details: H37Rv, time 6.0 hrs; remark: listed apart in the source
[47] = Metal chelating activity assessed as Fe2+-compound complex formation by measuring decrease in band intensity at 10 uM measured after 1 hr in presence of ferrous sulphate by UV-Visible spectrophotometric analysis

With CCNc1cc(C)nn1-c1nc(-c2cccnc2)cc(=O)[nH]1 the Stabilty [1] was 80%, the AUC(0-inf) [2] was 1090 µM·h and the Kinetic_solubility [3] was 90 µM. The Drug metabolism [4] was “Metabolite_Detected”, the Fu [5] was 0.009 and the solubility [6] was 90 µM (≈ 26.7 µg/mL). For the same compound, the Stabilty [7] was 95%, the Activity [8] was 2 log10CFU and the Stabilty [9] was 94%. The CL [10] was 34 mL/min/kg, the Vd [11] was 0.1 L/kg and the Activity [12] was “Active”. For the same compound, the half-life [13] was 4 h, the IC50 [14] was > 50 µM and the Cmax [15] was 33.1 µM. It also gave an MIC [16] of 6.25 µM (≈ 1.85 µg/mL), an AUC(0-inf) [17] of 256 µM·h and a bioavailability [18] of 44%. The clearance [19] was 0.4 mL/min/kg, the MIC [20] was 5.8 µM (≈ 1.72 µg/mL) and the Cmax [21] was 104 µM. It also gave a Tmax [22] of 1 h and a half-life [23] of 6.1 h.
In the case of Cc1cc(Nc2ccc(F)cc2)n(-c2nc(C(F)(F)F)cc(=O)[nH]2)n1, the Stabilty [1] is reported as 98%, the AUC(0-inf) [2] is reported as 5.22 µM·h and the Kinetic_solubility [3] is reported as 15 µM. For the same compound, the Fu [5] was 0.013, the solubility [6] was 15 µM (≈ 5.3 µg/mL) and the Stabilty [7] was 98%. The Activity [8] was 2 log10CFU, the Stabilty [9] was 96% and the CL [10] was > 4000 mL/min/kg. For the same compound, the Vd [11] was 37.4 L/kg, the Activity [12] was “Active” and the half-life [13] was 5.6 h. It also gave an IC50 [14] of 20 µM, a Cmax [15] of 2.4 µM and an MIC [16] of 1.56 µM (≈ 0.551 µg/mL). It also gave an AUC(0-inf) [17] of 1.52 µM·h, a bioavailability [18] of 33% and a clearance [19] of 80.9 mL/min/kg. For the same compound, the MIC [20] was 1.2 µM (≈ 0.424 µg/mL), the Cmax [21] was 2.9 µM and the Tmax [22] was 0.5 h. It also gave a half-life [23] of 4.4 h.
In the case of Cc1cc(Nc2ccccn2)n(-c2nc(C(F)(F)F)cc(=O)[nH]2)n1, the Activity [24] is reported as “Active”, the Activity [25] is reported as “Active” and the Stabilty [1] is reported as > 99%. For the same compound, the Activity [26] was “Active”, the fold change (FC) [27] was 2 and the MIC [28] was 0.12 µM (≈ 0.0404 µg/mL). For the same compound, the Kinetic_solubility [3] was 25 µM, the fold change (FC) [29] was 2 and the Activity [30] was “Active”. The Activity [31] was “Active”, the solubility [6] was 25 µM (≈ 8.41 µg/mL) and the Stabilty [7] was 96%. The fold change (FC) [32] was 2, the Activity [33] was “Active” and the “fold change (FC)” value [34] was “>=32”. The Stabilty [9] was > 99%, the fold change (FC) [35] was 2 and the Activity [36] was “Active”. The fold change (FC) [37] was 2, the IC50 [14] was 23 µM and the Activity [38] was “Active”. The Activity [39] was “Active”, the MIC [16] was 0.9 µM (≈ 0.303 µg/mL) and the deltaA [40] was 300 nm. For the same compound, the fold change (FC) [41] was 2, the fold change (FC) [42] was 2 and the Activity [43] was “Active”. For the same compound, the fold change (FC) [44] was 2, the Activity [45] was “Active” and the Activity [46] was “Active”. For the same compound, the Activity [47] was “Active”.
